From ChEMBL document CHEMBL1201861, “Genomics of Drug Sensitity in Cancer screening data, Wellcome Trust Sanger Institute”

How the values were obtained:
Assay in all cases: cells
Assay type in all cases: functional, cell-based, Homo sapiens
MHH-ES-1 = details: Homo sapiens, MHH-ES-1
Description: SANGER: Inhibition of human MHH-ES-1 cell growth in a cell viability assay.

A2058 = details: Homo sapiens, A2058
Description: SANGER: Inhibition of human A2058 cell growth in a cell viability assay.

DBTRG-05MG = details: Homo sapiens, DBTRG-05MG
Description: SANGER: Inhibition of human DBTRG-05MG cell growth in a cell viability assay.

786-0 = details: Homo sapiens
Description: SANGER: Inhibition of human 786-0 cell growth in a cell viability assay.

BT-20 = details: Homo sapiens, BT-20
Description: SANGER: Inhibition of human BT-20 cell growth in a cell viability assay.

J82 = details: Homo sapiens, J82
Description: SANGER: Inhibition of human J82 cell growth in a cell viability assay.

HCC38 = details: Homo sapiens, HCC38
Description: SANGER: Inhibition of human HCC38 cell growth in a cell viability assay.

CAL-148 = details: Homo sapiens, CAL-148
Description: SANGER: Inhibition of human CAL-148 cell growth in a cell viability assay.

MKN-1 = details: Homo sapiens, MKN-1
Description: SANGER: Inhibition of human MKN1 cell growth in a cell viability assay.

COLO-679 = details: Homo sapiens, COLO-679
Description: SANGER: Inhibition of human COLO-679 cell growth in a cell viability assay.

HSC-3 = details: Homo sapiens, HSC-3
Description: SANGER: Inhibition of human HSC-3 cell growth in a cell viability assay.

TUR = details: Homo sapiens, TUR
Description: SANGER: Inhibition of human TUR cell growth in a cell viability assay.

AN3-CA = details: Homo sapiens, AN3-CA
Description: SANGER: Inhibition of human AN3-CA cell growth in a cell viability assay.

CP50-MEL-B = details: Homo sapiens, CP50-MEL-B
Description: SANGER: Inhibition of human CP50-MEL-B cell growth in a cell viability assay.

C-33-A = details: Homo sapiens, C-33-A
Description: SANGER: Inhibition of human C-33-A cell growth in a cell viability assay.

SNU-387 = details: Homo sapiens, SNU-387
Description: SANGER: Inhibition of human SNU-387 cell growth in a cell viability assay.

A-431 = details: Homo sapiens, A-431
Description: SANGER: Inhibition of human A431 cell growth in a cell viability assay.

BOKU = details: Homo sapiens, BOKU
Description: SANGER: Inhibition of human BOKU cell growth in a cell viability assay.

SK-MM-2 = details: Homo sapiens, SK-MM-2
Description: SANGER: Inhibition of human SK-MM-2 cell growth in a cell viability assay.

YT = details: Homo sapiens, YT
Description: SANGER: Inhibition of human YT cell growth in a cell viability assay.

ABC-1 = details: Homo sapiens, ABC-1
Description: SANGER: Inhibition of human ABC-1 cell growth in a cell viability assay.

COLO-680N = details: Homo sapiens, COLO-680N
Description: SANGER: Inhibition of human COLO-680N cell growth in a cell viability assay.

UACC-893 = details: Homo sapiens, UACC-893
Description: SANGER: Inhibition of human UACC-893 cell growth in a cell viability assay.

PANC-08-13 = details: Homo sapiens, PANC-08-13
Description: SANGER: Inhibition of human PANC-08-13 cell growth in a cell viability assay.

SW1783 = details: Homo sapiens, SW1783
Description: SANGER: Inhibition of human SW1783 cell growth in a cell viability assay.

NCI-H1563 = details: Homo sapiens, NCI-H1563
Description: SANGER: Inhibition of human NCI-H1563 cell growth in a cell viability assay.

A204 = details: Homo sapiens, A204
Description: SANGER: Inhibition of human A204 cell growth in a cell viability assay.

VMRC-RCZ = details: Homo sapiens, VMRC-RCZ
Description: SANGER: Inhibition of human VMRC-RCZ cell growth in a cell viability assay.

HOS = details: Homo sapiens, HOS
Description: SANGER: Inhibition of human HOS cell growth in a cell viability assay.

MC-IXC = details: Homo sapiens, MC-IXC
Description: SANGER: Inhibition of human MC-IXC cell growth in a cell viability assay.

SR = details: Homo sapiens, SR
Description: SANGER: Inhibition of human SR cell growth in a cell viability assay.

HT-3 = details: Homo sapiens, HT-3
Description: SANGER: Inhibition of human HT-3 cell growth in a cell viability assay.

SW837 = details: Homo sapiens, SW837
Description: SANGER: Inhibition of human SW837 cell growth in a cell viability assay.

CHL-1 = details: Homo sapiens, CHL-1
Description: SANGER: Inhibition of human CHL-1 cell growth in a cell viability assay.

NCI-H2081 = details: Homo sapiens, NCI-H2081
Description: SANGER: Inhibition of human NCI-H2081 cell growth in a cell viability assay.

BHY = details: Homo sapiens, BHY
Description: SANGER: Inhibition of human BHY cell growth in a cell viability assay.

FaDu = details: Homo sapiens, FaDu
Description: SANGER: Inhibition of human FADU cell growth in a cell viability assay.

DOK = details: Homo sapiens, DOK
Description: SANGER: Inhibition of human DOK cell growth in a cell viability assay.

HT-1080 = details: Homo sapiens, HT-1080
Description: SANGER: Inhibition of human HT-1080 cell growth in a cell viability assay.

HTC-C3 = details: Homo sapiens, HTC-C3
Description: SANGER: Inhibition of human HTC-C3 cell growth in a cell viability assay.

RT-112 = details: Homo sapiens, RT-112
Description: SANGER: Inhibition of human RT-112 cell growth in a cell viability assay.

NCI-H292 = details: Homo sapiens, NCI-H292
Description: SANGER: Inhibition of human NCI-H292 cell growth in a cell viability assay.

NCI-H2052 = details: Homo sapiens, NCI-H2052
Description: SANGER: Inhibition of human NCI-H2052 cell growth in a cell viability assay.

DK-MG = details: Homo sapiens, DK-MG
Description: SANGER: Inhibition of human DK-MG cell growth in a cell viability assay.

BCPAP = details: Homo sapiens, BCPAP
Description: SANGER: Inhibition of human BCPAP cell growth in a cell viability assay.

## Cc1cc([N+](=O)[O-])ccc1NS(=O)(=O)c1cc(Cl)ccc1Cl
MHH-ES-1
  IC50: 6.43 µM
A2058
  IC50: 2030 nM
DBTRG-05MG
  IC50: 9.11 µM
786-0
  IC50: 3.92 µM
BT-20
  IC50: 8.51 µM
J82
  IC50: 2.62 µM
HCC38
  IC50: 7.96 µM
CAL-148
  IC50: 13.7 µM
MKN-1
  IC50: 4.21 µM
COLO-679
  IC50: 2.4 µM
HSC-3
  IC50: 2890 nM
TUR
  IC50: 9.58 µM
AN3-CA
  IC50: 1.08 µM
CP50-MEL-B
  IC50: 1030 nM
C-33-A
  IC50: 2000 nM
SNU-387
  IC50: 7.66 µM
A-431
  IC50: 2090 nM
BOKU
  IC50: 4.36 µM
SK-MM-2
  IC50: > 32 µM
YT
  IC50: 1830 nM
ABC-1
  IC50: 3.41 µM
COLO-680N
  IC50: 12.5 µM
UACC-893
  IC50: 3.06 µM
PANC-08-13
  IC50: > 32 µM
SW1783
  IC50: 7.15 µM
NCI-H1563
  IC50: 9.47 µM
A204
  IC50: 6.09 µM
VMRC-RCZ
  IC50: 6.97 µM
HOS
  IC50: 2.53 µM
MC-IXC
  IC50: 2510 nM
SR
  IC50: 4.95 µM
HT-3
  IC50: > 32 µM
SW837
  IC50: 4 µM
CHL-1
  IC50: 2.18 µM
NCI-H2081
  IC50: > 32 µM
BHY
  IC50: 4.5 µM
FaDu
  IC50: 4.28 µM
DOK
  IC50: > 32 µM
HT-1080
  IC50: 0.675 µM
HTC-C3
  IC50: 3.03 µM
RT-112
  IC50: 6.11 µM
NCI-H292
  IC50: 11.3 µM
NCI-H2052
  IC50: 18.2 µM
DK-MG
  IC50: 12.3 µM
BCPAP
  IC50: 2050 nM

## Oc1ccc2ccccc2c1SSc1c(O)ccc2ccccc12
MHH-ES-1
  IC50: > 32 µM
A2058
  IC50: > 32000 nM
DBTRG-05MG
  IC50: > 32 µM
786-0
  IC50: 3.32 µM
BT-20
  IC50: > 32 µM
J82
  IC50: 7.05 µM
HCC38
  IC50: > 32 µM
CAL-148
  IC50: > 32 µM
MKN-1
  IC50: > 32 µM
COLO-679
  IC50: 28.7 µM
HSC-3
  IC50: > 32000 nM
TUR
  IC50: > 32 µM
AN3-CA
  IC50: 14.3 µM
CP50-MEL-B
  IC50: > 32000 nM
C-33-A
  IC50: > 32000 nM
SNU-387
  IC50: > 32 µM
A-431
  IC50: > 32000 nM
BOKU
  IC50: > 32 µM
SK-MM-2
  IC50: > 32 µM
YT
  IC50: 1390 nM
ABC-1
  IC50: > 32 µM
COLO-680N
  IC50: > 32 µM
UACC-893
  IC50: > 32 µM
PANC-08-13
  IC50: > 32 µM
SW1783
  IC50: > 32 µM
NCI-H1563
  IC50: > 32 µM
A204
  IC50: > 32 µM
VMRC-RCZ
  IC50: 14.1 µM
HOS
  IC50: 4.5 µM
MC-IXC
  IC50: > 32000 nM
SR
  IC50: 5.37 µM
HT-3
  IC50: > 32 µM
SW837
  IC50: > 32 µM
CHL-1
  IC50: 11.9 µM
NCI-H2081
  IC50: > 32 µM
BHY
  IC50: 24.5 µM
FaDu
  IC50: > 32 µM
DOK
  IC50: > 32 µM
HT-1080
  IC50: 18.6 µM
HTC-C3
  IC50: > 32 µM
RT-112
  IC50: 27.3 µM
NCI-H292
  IC50: > 32 µM
NCI-H2052
  IC50: > 32 µM
DK-MG
  IC50: > 32 µM
BCPAP
  IC50: > 32000 nM
